Structures are written as SMILES.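 All cell lines were grown in 96-well plates and treated with compound for 48 hours. The concentration for 50% growth inhibition is given as GI50. The concentration for full growth arrest is given as TGI.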 Some results are limits rather than exact numbers.

12 compounds from PubChem BioAssay (NCI) can be followed below.

Test systems include A498 renal; ACHN renal; HOP-92 NSCLC; HT29 colon; MOLT-4 leukemia; NCI-H460 lung; RXF 393 renal; SF-295 CNS; U251 CNS; UO-31 renal.
Assay in all cases: inhibition of tumour cell growth, NCI panel, 48 h

As for `COc1cc(C=O)cc(C=Nc2ccc(S(N)(=O)=O)cc2)c1O`, the TGI with A498 renal was 48.2 µM; in the test on ACHN renal, 35.2 µM; in the test on HOP-92 NSCLC, 21.7 µM; in the test with HT29 colon it was more than 100 µM; with MOLT-4 leukemia, 64.2 µM; in the test with NCI-H460 lung it was 74.6 µM. Moreover, the TGI was 14.5 µM with RXF 393 renal, 23.2 µM in the test with SF-295 CNS, more than 100 µM in the test on U251 CNS and more than 100 µM in the test on UO-31 renal.
Take `COC[C@@H](Cc1ccc(OC)c(OC)c1)[C@@H](COC)Cc1ccc(OC)c(OC)c1`: the TGI in the test on A498 renal, in the test with ACHN renal, in the test with HOP-92 NSCLC, in the test on HT29 colon, in the test with MOLT-4 leukemia and with NCI-H460 lung was more than 100 µM each time. Moreover, the TGI in the test with RXF 393 renal, with SF-295 CNS, with U251 CNS and in the test on UO-31 renal was more than 100 µM in each case.
Turning to `CC1(C)C2CCC(N)(C2)C1O` (stereo not given), the TGI in the test with A498 renal, in the test with ACHN renal, with HOP-92 NSCLC, with MOLT-4 leukemia, in the test on NCI-H460 lung and in the test on RXF 393 renal was more than 100 µM throughout. The TGI with SF-295 CNS, with U251 CNS and in the test with UO-31 renal was more than 100 µM each time.
As to `COC(=O)C(Cc1nc2ccccc2[nH]c1=O)C(=O)C(=O)Nc1cc(C(F)(F)F)ccc1Cl` (stereo not given), the TGI is more than 100 µM in the test with A498 renal; 24.5 µM with ACHN renal; 32.5 µM with HOP-92 NSCLC; 28.6 µM in the test on HT29 colon; 48.2 µM in the test on MOLT-4 leukemia; 39.9 µM in the test with NCI-H460 lung. Also, the TGI in the test on RXF 393 renal was 46.3 µM; in the test on SF-295 CNS it was 71.2 µM; in the test with U251 CNS, 66.6 µM; in the test with UO-31 renal, 28.9 µM.
With `COc1ccc(C[C@@H]2OC3(C=CC(=O)C=C3)O[C@H]2Cc2ccc(OC)cc2)cc1`, the TGI was 14.8 µM in the test on A498 renal; 1.16 µM with ACHN renal; 1.82 µM in the test with HOP-92 NSCLC; 2.18 µM with HT29 colon; 2.01 µM in the test on MOLT-4 leukemia; 25.1 µM with NCI-H460 lung. For the same compound, the TGI in the test with RXF 393 renal is 0.79 µM; in the test on SF-295 CNS, 7.89 µM; with U251 CNS it was 2.75 µM; in the test with UO-31 renal it was 0.379 µM.
For the compound `COP(C)(=O)C(Cc1c[nH]c2ccccc12)NC(=O)OCc1ccccc1` (stereo not given), the TGI in the test with A498 renal, in the test on ACHN renal, with HOP-92 NSCLC, with HT29 colon, with MOLT-4 leukemia and with NCI-H460 lung was more than 100 µM each time. Besides, the TGI with RXF 393 renal, in the test with SF-295 CNS, in the test on U251 CNS and with UO-31 renal was more than 100 µM throughout.
As for `NCCCC[C@H](N)C(=O)Nc1ccc(-c2nc3ccccc3s2)cc1Cl`, the TGI with A498 renal is 2.07 µM; with ACHN renal, 29.3 µM; in the test on HOP-92 NSCLC, 60 µM; with HT29 colon, 18.1 µM; in the test on MOLT-4 leukemia it was more than 24.1 µM; with NCI-H460 lung, 13.7 µM. Also, the TGI was determined as 27.3 µM in the test on RXF 393 renal, 10.2 µM in the test on SF-295 CNS, 13.7 µM in the test on U251 CNS and 18.3 µM in the test on UO-31 renal.
For the compound `Cc1sc2nc3n(c(=O)c2c1C)N=C(c1ccc([N+](=O)[O-])cc1)CS3`, the TGI with A498 renal, in the test on ACHN renal, in the test with HOP-92 NSCLC, in the test on HT29 colon, with MOLT-4 leukemia and with NCI-H460 lung was more than 100 µM in each case. Further, the TGI in the test with RXF 393 renal, in the test with SF-295 CNS, with U251 CNS and in the test with UO-31 renal was more than 100 µM each time.
For `CCOC(=O)CC[C@H](N)C(=O)N[C@H](Cc1ccc(N(CCCl)CCCl)cc1)C(=O)OCC`, the TGI in the test on A498 renal is 74.5 µM; in the test with ACHN renal, 2.68 µM; with HOP-92 NSCLC it was 3.24 µM; in the test on HT29 colon it was 13.3 µM; with MOLT-4 leukemia it was 31.5 µM; in the test on NCI-H460 lung it was 16.2 µM. The TGI is 3.66 µM with RXF 393 renal, 23 µM in the test on SF-295 CNS, more than 33.7 µM with U251 CNS and 0.281 µM in the test with UO-31 renal. Besides, the GI50 is 0.499 µM in the test with ACHN renal and 0.135 µM in the test on UO-31 renal.
In the case of `CC(=O)OCC1OC(N2C(S)=C(C#N)C(c3ccco3)C(C(C)=O)=C2c2ccccc2)C(OC(C)=O)C(OC(C)=O)C1OC(C)=O` (stereo not given), the TGI in the test on A498 renal was more than 100 µM; with HOP-92 NSCLC, 95.2 µM; in the test on HT29 colon, more than 100 µM; in the test on MOLT-4 leukemia, more than 100 µM; with NCI-H460 lung, more than 100 µM; in the test on RXF 393 renal, more than 100 µM. Also, the TGI is 94 µM in the test with SF-295 CNS, more than 100 µM in the test with U251 CNS and 91.4 µM in the test with UO-31 renal.
`CC(C)N(C(C)C)P(OCCC#N)OC1CC(n2cnc3c(=O)[nH]cnc32)OC1COC(=O)NCCCCCCNC(=O)OC(C)(C)c1ccc(-c2ccccc2)cc1` (stereo not given): the TGI with A498 renal is more than 100 µM; in the test on ACHN renal, more than 100 µM; in the test on HOP-92 NSCLC, 75.7 µM; in the test with HT29 colon, more than 100 µM; with MOLT-4 leukemia it was more than 100 µM; in the test with NCI-H460 lung it was 65 µM. Besides, the TGI was 74.3 µM in the test with RXF 393 renal, more than 100 µM in the test with SF-295 CNS, 43 µM with U251 CNS and 31.3 µM in the test with UO-31 renal.
For the compound `COc1ccc2[nH]c(O)c(/C=c3/cc4c(c(-c5ccc(F)cc5)n3)=Nc3ccccc3-4)c2c1`, the GI50 in the test with A498 renal was 13.2 µM; in the test on ACHN renal, 10.3 µM; in the test on HOP-92 NSCLC, 13.6 µM; in the test on HT29 colon, 1.94 µM; with MOLT-4 leukemia, 1.97 µM; with NCI-H460 lung, 1.82 µM. Further, the GI50 in the test with RXF 393 renal was 2.25 µM; in the test on SF-295 CNS, 10.5 µM; in the test on U251 CNS, 1.68 µM; in the test with UO-31 renal, 15.5 µM. In addition, the TGI with A498 renal was 34.3 µM; with ACHN renal it was 22.5 µM; with HOP-92 NSCLC, 41.3 µM; with HT29 colon, 3.85 µM; with MOLT-4 leukemia, 5.21 µM; with NCI-H460 lung, 4.01 µM. The TGI in the test with RXF 393 renal amounted to 7.53 µM; with SF-295 CNS, 31.2 µM; in the test with U251 CNS it was 3.26 µM; with UO-31 renal, 30.3 µM.
